# Columns and labels:
# [1] = tested on: COR-L23/P and its resistant cell line COR-L23/R; format: cell-based, human; details: for fluorescence due to uptake in resistant and non-resistant cells: drug concentration 10 μM, FIG. 12; for cellular accumulation (concentration) in COR-L23/R compared with COR-L23/P: drugs at 20 μM, FIG. 11
# Experimental: Cells were exposed in suspension at 2×10^5/ml to drugs at 20 μM. Aliquots were taken at various times and rinsed in ice cold PBS before being passed through the flow cytometre.
# Cells were exposed to Daunorubicine, Daunorubicine elaidic amide and Daunorubicine oleic carbamate, as described above. Drug concentration was reduced to 10 μM.
# [2] = drug toxicity LD50 in tumour-bearing mice, single intraperitoneal dose; format: in vivo, BALB/C female mice; details: for LD50 at 10 days: female, BALB/C, mouse, in vivo, ip, read-out: Mother compound LD50
# Experimental: (§1) Murine solid ADJ/PC6 plasmacytoma and its subline selected for resistance to cisplatin and other alkylating agents was implanted subcutaneously as 1 mm^3 tumour fragments into BALB/C female mice weighing 20-25 grams. Melphalan or melphalan-elaidic amide, or chlorambucil or chlorambucil-oleylester, were administered by intraperitoneal, single dose 20 days post subcutaneous tumour implantation. Tumours were dissected on day 30, and weights of control and treated groups were compared. Activity was based on the measurement of drug toxicity, LD50 in mg/kg compared to anti-tumour effect measured as ED90, the dose in mg/kg required to reduce tumour mass by 90% compared to controls.
# [3] = tested on: ADJ/PC6 plasmacytoma; test: antitumour effect in vivo, murine subcutaneous ADJ/PC6 plasmacytoma (sensitive); details: i.p. single dose day 20, tumours weighed day 30
# Experimental: as §1
# [4] = tested on: cisplatin-resistant subline of ADJ/PC6 plasmacytoma; test: antitumour effect in vivo, cisplatin-resistant subline of ADJ/PC6 plasmacytoma; set-up: species or system murine
# Experimental: as §1
# [5] = tested on: granuloma induced cartilage degradation; details: daily oral; for reduction of granuloma tissue dry weight versus liposome-treated control / reduction of fluid mass of the granulomas versus liposome-treated control / glycosaminoglycan content of implanted cartilage, less than liposome-treated control group / hydroxyproline content of implanted cartilage, less than liposome-treated control group: naproxen 30 mg/kg, derivatives 60 mg/kg; for reduction of granuloma tissue dry weight versus liposome-treated control / reduction of fluid mass of the granulomas versus liposome-treated control: liposomes; for reduction of granuloma tissue dry weight versus liposome-treated control: control 14.36 mg; for reduction of fluid mass of the granulomas versus liposome-treated control: control 62.69 mg; for glycosaminoglycan content of implanted cartilage, less than liposome-treated control group / hydroxyproline content of implanted cartilage, less than liposome-treated control group: implants 2 weeks
# Text: The in vivo model of granuloma induced cartilage degradation which was employed involves the implantation of sterile cotton-wrapped rat femoral head cartilage subcutaneously on the backs of mice. The cotton provokes a granulomatous response with a demonstrable T cell involvement which leads to loss of matrix compounds from the implanted cartilage. […] It involves chronic erosive disease with quantitative biochemical end points for determining the loss of cartilage matrix. Antiinflammatory activity can be judged from the wet and dry mass of the cotton granuloma, chondroprotective activity can be determined from glycosaminoglycan and hydroxyproline content (indicative of proteoglycan and collagen respectively) of the implanted cartilage.
# Groups of female (n=10) TO mice (21±4 g) received a subcutaneous implant of cotton-wrapped rat femoral head cartilage. At 2 weeks the implants were removed. The cotton provoked a granulomatous response with concomitant release of proteoglycan from the implanted cartilage. The effects of daily oral administration of equimolar amounts of naproxen (30 mg/kg) and naproxen derivatives (60 mg/kg) on granuloma development and cartilage proteoglycan content were assessed. The compounds were formulated as liposomes with empty liposomes acting as vehicle control.
# A 15 mg/ml liposomal formulation is prepared by the 1:1 (w/w) mixing of the specific lipid derivatives (in DMSO) and lecithin (in ethanol) in a glycerol/sterile water buffer with subsequent dialysis to remove the solvents. A 7.5 mg/ml liposomal formulation of the underivatised NSAID compounds is prepared by the addition of the specific compound to empty liposomes in glycerol/sterile water.
# Results were analysed with INSTAT using Mann-Whitney and with p values corrected for ties. Values of p<0.05 were taken as significant.
# [6] = tested on: H69/LX4, human small lung cell line, overexpressing PgP
# Text: An MTT assay was used to determine the toxicity of compounds. The cells were exposed to the compounds for 6 days prior to assaying. The cell line used was H69/LX4, human small lung cell line, overexpressing PgP.
# [7] = tested on: NK65 strain drug sensitive P. berghei; test: 4-day test in P. berghei infected mice; format: in vivo; details: for ED50: Plasmodium berghei, ip, 96 h, 50% reduction in parasites in blood, read-out: ED50 value (SE); for ED50 / ED90 value / ED99 value: i.p. for 4 days, elaidate values × 433/600; for ED90 value: 90% reduction in parasites in blood; for ED99 value: 99% reduction in parasites in blood
# Experimental: A 4-day test in NK65 strain drug sensitive P. berghei was carried out in Swiss albino female mice with doses of 0.063, 0.25, 1.0 and 4 mg/kg hydroxychloroquine-elaidate and 0.094, […], 1.5 and 6 mg/kg hydroxychloroquine given intraperitoneally for 4 days to groups of 3 mice per group. The parasite inoculum of 10^7 infected cells was given intravenously on day 0 and follwoed by the drug dose for that day. The animals were dosed for the 3 following days and on the 5th day tail blood films were prepared for parasitaemia estimation. […] These findings could be of great importance in the treatment of malaria in man.
# The effective doses giving 50%, 90% and 99% reduction in P. berghei malaria parasites in the blood of mice with either hydroxychloroquine sulphate or hydroxychloroquine-elaidate is shown in this table.
# [8] = tested on: rat peritoneal monocytes/macrophages; test: effect on rat peritoneal monocytes/macrophages after intraperitoneal injection (cell counts, chemoluminescence on stimulation); format: in vivo; details: for activity (chemoluminescence) of zymosan stimulated peritoneal cells: 6, 12, 25, 48 and 72 hours post treatment, FIG. 5
# [9] = tested on: endotoxin induced airway changes; test: endotoxin (LPS) induced airway changes in rats, airway hyperresponsiveness model; format: in vivo, F344 rats
# Experimental: In a model of acute inflammatory airway changes in rats, the animals are exposed to aerosolized endotoxin (LPS). […] 10 male F344 rats were exposed to 100 μg/ml LPS for 30 minutes in a chamber. 12 and 4 hours prior to aerosol exposure the animals were treated with either prednisolone or the prednisolone derivative by instillation, 3 mg/kg. 90 minutes after the end of the aerosol exposure, the animals were prepared for assessment of airway responsiveness to 5-hydroxytryptamine and evaluation of airway inflammation. 5HT was added intravenously every 5 minutes until minimum 50% increase in lung resistance is observed, and the amount of 5 HT necessary to increase the lung resistance with 50%, PC50RL was calculated.
# [10] = i.p. single dose day 20, tumours weighed day 30
molecule,measurement,setting,value
"CCCCCCCCC=CCCCCCCCCOC(=O)NC1CC(OC2CC(O)(C(C)=O)Cc3c(O)c4c(c(O)c32)C(=O)c2c(OC)cccc2C4=O)OC(C)C1O (stereo not drawn) [Daunorubicine oleic carbamate, N-(cis-9-octadecen-1-oxycarbonyl)daunorubicin]",fluorescence due to uptake in resistant and non-resistant cells,[1],more or less equal in the two cell types
"CCCCCCCC/C=C/CCCCCCCC(=O)NC(Cc1ccc(N(CCCl)CCCl)cc1)C(=O)O (stereo not shown) [melphalan-elaidic amide, Elaidic acid melphalan amide]",Derivative LD50,[2],180 mg/kg
same,"ED90, dose required to reduce tumour mass by 90% compared to controls",[3],ED90 was achieved
same,"ED90, dose required to reduce tumour mass by 90% compared to controls",[4]; [10],60 mg/kg
same,"ED90, dose required to reduce tumour mass by 90% compared to controls","[4]; i.p. single dose day 20, tumours weighed day 30, listed as melphalan-elaidic acid amide",ED90 was achieved
"CCCCCCCC/C=C\CCCCCCCCOc1ccc2cc([C@H](C)C(=O)O)ccc2c1 (stereo in doubt) [naproxen oleyl ether, S(+)-2-(6-[cis-9′-octadecenoxy]-2-naphthyl)-propionic acid]",reduction of granuloma tissue dry weight versus liposome-treated control,[5]; 2 weeks,16%
same,reduction of fluid mass of the granulomas versus liposome-treated control,[5]; 2 weeks,9%
"CCCCCCCCC=CCCCCCCCC(=O)NC1CC(OC2CC(O)(C(=O)CO)Cc3c(O)c4c(c(O)c32)C(=O)c2c(OC)cccc2C4=O)OC(C)C1O (stereo not shown) [Doxorubicine-elaidic-amide, Elaidic acid doxorubicin amide]",cellular accumulation (concentration) in COR-L23/R compared with COR-L23/P,[1],approximately the same
same,IC50,[6],> 50 µM
"CCN(CCO)CCCC(C)Nc1ccnc2cc(Cl)ccc12 (stereo not shown) [Hydroxychloroquine sulphate, 7-chloro-4-[4-[ethyl(2-hydroxyethyl)amino]1-methylbutylamino]quinoline, reference compound]",ED50,[7],1.74 mg/kg
same,ED90 value,[7],2.75 mg/kg
same,ED99 value,[7],4.52 mg/kg
"CCCCCCCC/C=C\CCCCCCCCOC(=O)[C@@H](C)c1ccc2cc(OC)ccc2c1 (stereo in doubt) [naproxen oleyl ester, S(+)-2-(6-methoxy-2-naphthyl)propionic acid-cis-9′-octadecenyl-ester]","glycosaminoglycan content of implanted cartilage, less than liposome-treated control group",[5],12%
same,"hydroxyproline content of implanted cartilage, less than liposome-treated control group",[5],8%
same,reduction of granuloma tissue dry weight versus liposome-treated control,[5]; 2 weeks,12%
same,reduction of fluid mass of the granulomas versus liposome-treated control,[5]; 2 weeks,14%
"CCCCCCCC/C=C\CCCCCCCCOC(=O)CCCc1ccc(N(CCCl)CCCl)cc1 [chlorambucil-oleylester, Chlorambucil-oleyl ester]",Derivative LD50,[2],>1600 mg/kg
"O=C(O)CCCc1ccc(N(CCCl)CCCl)cc1 [Chlorambucil, 4-[p-[bis(2-chlorethyl)amino]-phenyl]butyric acid, reference compound]",LD50 at 10 days,[2],57 mg/kg
"CCCCCCCC/C=C/CCCCCCCC(=O)OCCN(CC)CCCC(C)Nc1ccnc2cc(Cl)ccc12 (stereo not shown) [Hydroxychloroquine-elaidate, 7-chloro-4-[4-[ethyl(2-elaidoyloxyethyl)amino]1-methylbutylamino]-quinoline]",ED50,[7],0.71 mg/kg
same,ED90 value,[7],0.93 mg/kg
same,ED99 value,[7],1.24 mg/kg
same,times more effective than hydroxychloroquine itself,"[7]; on a molar basis, 4 day test",2.5- 3 times
"COc1cccc2c1C(=O)c1c(O)c3c(c(O)c1C2=O)C[C@@](O)(C(=O)CO)C[C@@H]3O[C@H]1C[C@H](N)[C@H](O)[C@H](C)O1 [Doxorubicine, reference compound]",cellular accumulation (concentration) in COR-L23/R compared with COR-L23/P,[1],much lower in the resistant cell line
"CCCCCCCC/C=C\CCCCCCCCNC(=O)[C@@H](C)c1ccc2cc(OC)ccc2c1 (stereo in doubt) [naproxen oleyl amide, S(+)-2-(6-methoxy-2-naphthyl)propionic acid-(cis-9′-octadecenyl)-amide]","glycosaminoglycan content of implanted cartilage, less than liposome-treated control group",[5],11%
same,"hydroxyproline content of implanted cartilage, less than liposome-treated control group",[5],3%
same,reduction of granuloma tissue dry weight versus liposome-treated control,[5]; 2 weeks,38%
same,reduction of fluid mass of the granulomas versus liposome-treated control,[5]; 2 weeks,22%
"COc1ccc2cc([C@H](C)C(=O)O)ccc2c1 [naproxen, S(+)-2-(6-methoxy-2-naphthyl)propionic acid, reference compound]",implants lost through aggressive behaviour of the animals,"[5]; 2 weeks, n=10",4 out of 10
same,"glycosaminoglycan content of implanted cartilage, less than liposome-treated control group",[5],16%
same,"hydroxyproline content of implanted cartilage, less than liposome-treated control group",[5],12%
same,reduction of granuloma tissue dry weight versus liposome-treated control,[5]; 2 weeks,no effect
same,reduction of fluid mass of the granulomas versus liposome-treated control,[5]; 2 weeks,12%
"C[C@]12C=CC(=O)C=C1CC[C@@H]1[C@@H]2[C@@H](O)C[C@@]2(C)[C@H]1CC[C@]2(O)C(=O)CO [prednisolone, 11β, 17α, 21-trihydroxypregna-1,4-diene-3,20-dione, reference compound]",activity (chemoluminescence) of zymosan stimulated peritoneal cells,[8]; i.p. 4 ml at 10 mg/ml,slight reduction of the chemoluminescence at 6 hours
same,number of macrophages in peritoneal lavage,"[8]; i.p. 4 ml at 10 mg/ml, 6-72 hours, FIG. 8, FIG. 9","much less pronounced, and only seen at 6 and 12 hours"
same,number of inflammatory cells in the bronchoalveolar fluid,"[9]; instillation 3 mg/kg, 12 and 4 hours prior to LPS aerosol",Neither prednisolone nor the derivative did influence
"CCCCCCCC/C=C/CCCCCCCC(=O)OCC(=O)[C@@]1(O)CC[C@H]2[C@@H]3CCC4=CC(=O)C=C[C@]4(C)[C@H]3[C@@H](O)C[C@@]21C [prednisolone-elaidate, 11β, 17α, 21-trihydroxypregna-1,4-diene-3,20-dione-21-elaidate]","chemiluminescence of stimulated peritoneal cells, comparison of 7 fatty acid esters of prednisolone","[8]; i.p. 10 mg/ml, 48 hours post treatment, FIG. 6",the best
same,activity (chemoluminescence) of zymosan stimulated peritoneal cells,[8]; i.p. 4 ml at 10 mg/ml,reduced compared to control for up to 48 hours post treatment
same,airway responsiveness to 5-hydroxytryptamine (PC50RL),"[9]; rat, in vivo",affected to a surprisingly high extent
same,number of inflammatory cells in the bronchoalveolar fluid,"[9]; rat, in vivo",Neither prednisolone nor the derivative did influence
"N[C@@H](Cc1ccc(N(CCCl)CCCl)cc1)C(=O)O [Melphalan, L-3-[p-[bis(2-chlorethyl)amino]-phenyl]alanine, reference compound]",LD50 at 10 days,[2],23 mg/kg
same,"ED90, dose required to reduce tumour mass by 90% compared to controls",[4]; [10],no activity
Elaidic acid daunorubicin amide [Daunorubicine elaidic amide],fluorescence due to uptake in resistant and non-resistant cells,[1],more or less equal in the two cell types
"CCCCCCCC/C=C\CCCCCCCCOC(=O)N[C@H]1C[C@H](O[C@H]2C[C@](O)(C(=O)CO)Cc3c(O)c4c(c(O)c32)C(=O)c2c(OC)cccc2C4=O)O[C@@H](C)[C@H]1O (relative stereo) [Doxorubicine-oleyl-carbamate, N-(cis-9-octadecen-1-oxycarbonyl)doxorubicin]",cellular accumulation (concentration) in COR-L23/R compared with COR-L23/P,[1],approximately the same

# Reference: US20030153544A1, “Fatty acid derivatives” (priority 1997, published 2003)
